These are literature values, as cited in PMC12163019 (Frontiers in Pharmacology, 2025).

On the set-up of this data set: method as in Danto et al., 2019a. The settings on record: modified-release formulation; ref Danto et al., 2019a.

Broadly, the half-life is the time in which the quantity being followed falls by half. As to `CC[C@@H]1[C@H](F)C(=O)N[C@@H]1COc1nccc2cc(C(N)=O)c(OC)cc12` [zimlovisertib], the half-life is listed as 38.8 ± 21.1 h.
